Some results are limits rather than exact numbers.

Usually pIC50 stands for the IC50 on a negative log10 scale, so that one unit is a factor of ten. A high value points to a small IC50.

What all share (test): pIC50, kinobeads binding competition
One assay concerns the target T1, BMPR2 (UniProt Q13873).
T1 sequence (whole entry): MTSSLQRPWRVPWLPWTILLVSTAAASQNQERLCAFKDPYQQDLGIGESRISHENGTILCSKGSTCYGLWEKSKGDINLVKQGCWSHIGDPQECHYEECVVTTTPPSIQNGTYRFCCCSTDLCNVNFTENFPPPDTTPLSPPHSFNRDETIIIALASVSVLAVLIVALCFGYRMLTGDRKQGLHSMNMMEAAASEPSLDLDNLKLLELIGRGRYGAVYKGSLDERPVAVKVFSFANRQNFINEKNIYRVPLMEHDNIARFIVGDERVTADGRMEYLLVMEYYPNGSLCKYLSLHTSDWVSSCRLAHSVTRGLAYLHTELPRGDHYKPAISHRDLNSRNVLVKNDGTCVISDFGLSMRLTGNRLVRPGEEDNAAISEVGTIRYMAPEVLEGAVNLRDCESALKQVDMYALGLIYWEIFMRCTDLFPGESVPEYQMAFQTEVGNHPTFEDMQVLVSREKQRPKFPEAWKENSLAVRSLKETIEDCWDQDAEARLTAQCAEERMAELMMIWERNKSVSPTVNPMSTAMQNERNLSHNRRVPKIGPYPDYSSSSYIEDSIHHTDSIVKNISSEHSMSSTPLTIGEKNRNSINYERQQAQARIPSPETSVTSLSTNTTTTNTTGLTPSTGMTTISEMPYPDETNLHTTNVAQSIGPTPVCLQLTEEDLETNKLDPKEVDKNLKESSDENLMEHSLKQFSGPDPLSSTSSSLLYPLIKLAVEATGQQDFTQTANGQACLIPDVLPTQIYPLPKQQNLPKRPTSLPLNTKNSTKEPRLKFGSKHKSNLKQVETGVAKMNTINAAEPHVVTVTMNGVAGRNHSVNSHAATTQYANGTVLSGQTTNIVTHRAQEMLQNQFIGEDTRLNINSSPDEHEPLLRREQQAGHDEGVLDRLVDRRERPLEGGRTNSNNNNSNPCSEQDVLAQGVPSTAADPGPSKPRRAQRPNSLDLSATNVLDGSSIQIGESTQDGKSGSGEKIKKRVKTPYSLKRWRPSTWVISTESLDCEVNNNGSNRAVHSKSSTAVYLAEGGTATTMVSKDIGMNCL
The settings on record: cell material: Jurkat lysate.

In the next assay the target is T2, PHKG2 (UniProt P15735).
T2 sequence (whole entry): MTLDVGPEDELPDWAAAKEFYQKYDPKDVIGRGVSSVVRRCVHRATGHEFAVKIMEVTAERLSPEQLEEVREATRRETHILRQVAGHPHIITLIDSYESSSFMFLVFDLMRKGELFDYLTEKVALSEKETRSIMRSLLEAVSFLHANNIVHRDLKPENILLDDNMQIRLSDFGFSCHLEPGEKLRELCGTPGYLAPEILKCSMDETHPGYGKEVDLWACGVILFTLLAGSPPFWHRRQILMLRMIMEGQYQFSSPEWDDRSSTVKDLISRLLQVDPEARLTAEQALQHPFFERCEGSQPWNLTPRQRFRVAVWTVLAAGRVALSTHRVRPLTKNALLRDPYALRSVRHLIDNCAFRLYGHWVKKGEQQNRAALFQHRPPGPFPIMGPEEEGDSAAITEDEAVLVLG
The settings on record: cell material: Jurkat lysate.

In a further assay the target is PIK3CD (UniProt O00329). The settings on record: cell material: Jurkat cells. In outline: (§1)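 pIC50 was obtained by fitting fold changes against vehicle to logistic dose-response curves with the R drc package, using biological duplicates. Kinobeads-bound proteins were digested and measured by TMT10 LC-MS/MS. Before this, either living Jurkat cells received nine compound concentrations (top 30 μM, 1:4 steps) for 60 min at 37 °C prior to lysis, or Jurkat lysate or a 1:1:1:1 HEK293/K-562/HepG2/placenta lysate mix received nine concentrations (top 30 μM, 1:5 steps) for 60 min at 4 °C.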

In the next assay the target is UniProt P05129. The settings on record: cell material: Jurkat cells. In outline: as §1
Another assay concerns the target STRADB (UniProt Q9C0K7). The settings on record: cell material: Lysate mix. In outline: as §1
The next assay has as its target TWF1 (UniProt Q12792). The settings on record: cell material: Lysate mix. In outline:
as §1

Another assay deals with UniProt P78368. The settings on record: cell material: Lysate mix. In outline:
as §1

The target in another assay is UniProt P19525. The settings on record: cell material: Lysate mix. In outline:
as §1

Another assay addresses UniProt P35590. The settings on record: cell material: Lysate mix. In outline: as §1
Another assay has as its target TYRO3 (UniProt Q06418). The settings on record: cell material: Jurkat lysate. In outline:
as §1

The next assay has as its target UniProt Q6DT37. The settings on record: cell material: Lysate mix. In outline: as §1

Chain of UniProt Q6DT37 (Q6DT37 whole entry): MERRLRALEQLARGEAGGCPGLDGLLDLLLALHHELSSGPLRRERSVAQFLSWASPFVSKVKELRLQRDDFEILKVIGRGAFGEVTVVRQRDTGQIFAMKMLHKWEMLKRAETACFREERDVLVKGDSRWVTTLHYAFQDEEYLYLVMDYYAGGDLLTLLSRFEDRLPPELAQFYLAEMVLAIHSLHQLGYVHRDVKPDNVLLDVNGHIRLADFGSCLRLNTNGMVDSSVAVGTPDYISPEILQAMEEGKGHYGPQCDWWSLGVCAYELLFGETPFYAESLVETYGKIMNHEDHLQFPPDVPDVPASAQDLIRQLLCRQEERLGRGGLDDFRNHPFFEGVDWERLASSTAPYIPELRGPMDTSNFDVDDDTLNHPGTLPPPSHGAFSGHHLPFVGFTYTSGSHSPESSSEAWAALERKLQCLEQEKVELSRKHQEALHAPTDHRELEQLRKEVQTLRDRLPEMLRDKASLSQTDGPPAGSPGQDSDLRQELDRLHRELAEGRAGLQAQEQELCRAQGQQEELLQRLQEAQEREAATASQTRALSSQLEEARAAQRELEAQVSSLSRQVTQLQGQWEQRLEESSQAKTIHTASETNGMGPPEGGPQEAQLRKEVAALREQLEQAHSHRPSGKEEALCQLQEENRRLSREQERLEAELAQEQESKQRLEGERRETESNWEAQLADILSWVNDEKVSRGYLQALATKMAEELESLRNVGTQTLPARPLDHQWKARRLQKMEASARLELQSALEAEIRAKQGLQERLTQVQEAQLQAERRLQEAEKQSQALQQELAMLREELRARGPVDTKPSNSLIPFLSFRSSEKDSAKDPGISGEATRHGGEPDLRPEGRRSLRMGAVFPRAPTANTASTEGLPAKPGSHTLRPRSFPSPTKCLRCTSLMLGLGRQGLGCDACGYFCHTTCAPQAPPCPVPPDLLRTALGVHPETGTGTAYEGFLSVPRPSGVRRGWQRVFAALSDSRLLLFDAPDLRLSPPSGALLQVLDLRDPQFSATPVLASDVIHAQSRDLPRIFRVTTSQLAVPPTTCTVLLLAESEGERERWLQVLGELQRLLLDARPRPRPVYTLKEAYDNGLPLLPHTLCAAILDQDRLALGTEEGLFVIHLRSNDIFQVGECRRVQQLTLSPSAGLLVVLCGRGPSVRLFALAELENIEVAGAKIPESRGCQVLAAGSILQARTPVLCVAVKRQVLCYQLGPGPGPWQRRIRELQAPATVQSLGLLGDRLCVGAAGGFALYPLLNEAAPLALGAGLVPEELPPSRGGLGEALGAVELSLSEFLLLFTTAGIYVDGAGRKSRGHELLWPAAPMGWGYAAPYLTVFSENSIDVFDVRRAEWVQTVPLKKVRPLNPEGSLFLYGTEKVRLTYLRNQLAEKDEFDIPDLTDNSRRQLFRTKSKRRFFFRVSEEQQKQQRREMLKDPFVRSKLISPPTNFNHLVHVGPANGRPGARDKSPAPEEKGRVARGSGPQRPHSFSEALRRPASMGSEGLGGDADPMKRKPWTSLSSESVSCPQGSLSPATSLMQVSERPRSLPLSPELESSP
Chain of TYRO3 (Q06418 whole entry): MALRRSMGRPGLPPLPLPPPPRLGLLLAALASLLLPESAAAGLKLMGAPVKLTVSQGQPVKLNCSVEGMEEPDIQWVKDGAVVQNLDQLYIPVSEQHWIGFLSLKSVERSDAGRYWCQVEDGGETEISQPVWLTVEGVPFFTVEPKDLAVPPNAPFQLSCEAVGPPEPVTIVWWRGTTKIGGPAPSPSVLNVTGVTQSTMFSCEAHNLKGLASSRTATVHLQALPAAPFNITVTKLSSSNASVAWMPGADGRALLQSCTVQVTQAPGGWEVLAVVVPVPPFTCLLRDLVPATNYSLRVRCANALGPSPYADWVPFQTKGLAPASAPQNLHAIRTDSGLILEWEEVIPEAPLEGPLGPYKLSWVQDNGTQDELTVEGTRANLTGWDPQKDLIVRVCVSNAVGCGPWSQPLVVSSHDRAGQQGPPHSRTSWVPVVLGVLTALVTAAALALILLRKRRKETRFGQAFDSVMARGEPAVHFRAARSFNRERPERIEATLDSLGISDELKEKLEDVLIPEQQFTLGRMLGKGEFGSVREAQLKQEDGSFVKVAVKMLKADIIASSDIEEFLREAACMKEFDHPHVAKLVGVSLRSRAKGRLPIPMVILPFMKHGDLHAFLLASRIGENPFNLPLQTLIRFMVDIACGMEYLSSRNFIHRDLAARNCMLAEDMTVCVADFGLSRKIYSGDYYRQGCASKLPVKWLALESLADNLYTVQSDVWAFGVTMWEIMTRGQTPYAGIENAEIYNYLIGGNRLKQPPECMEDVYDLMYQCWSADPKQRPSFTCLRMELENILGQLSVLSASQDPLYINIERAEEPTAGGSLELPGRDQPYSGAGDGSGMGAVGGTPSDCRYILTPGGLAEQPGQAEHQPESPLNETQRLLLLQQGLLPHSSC
Chain of STRADB (Q9C0K7 whole entry): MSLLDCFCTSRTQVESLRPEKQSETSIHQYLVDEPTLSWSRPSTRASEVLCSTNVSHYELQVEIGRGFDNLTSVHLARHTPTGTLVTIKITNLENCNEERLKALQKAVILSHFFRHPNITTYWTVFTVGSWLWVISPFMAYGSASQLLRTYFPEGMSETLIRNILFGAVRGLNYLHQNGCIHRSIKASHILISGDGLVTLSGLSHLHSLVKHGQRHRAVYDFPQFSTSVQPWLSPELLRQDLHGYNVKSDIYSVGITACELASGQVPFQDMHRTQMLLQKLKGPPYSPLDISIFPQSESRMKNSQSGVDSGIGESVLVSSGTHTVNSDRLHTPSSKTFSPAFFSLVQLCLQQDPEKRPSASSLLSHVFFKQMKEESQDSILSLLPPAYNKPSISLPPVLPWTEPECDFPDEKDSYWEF
Chain of UniProt P19525 (P19525 whole entry): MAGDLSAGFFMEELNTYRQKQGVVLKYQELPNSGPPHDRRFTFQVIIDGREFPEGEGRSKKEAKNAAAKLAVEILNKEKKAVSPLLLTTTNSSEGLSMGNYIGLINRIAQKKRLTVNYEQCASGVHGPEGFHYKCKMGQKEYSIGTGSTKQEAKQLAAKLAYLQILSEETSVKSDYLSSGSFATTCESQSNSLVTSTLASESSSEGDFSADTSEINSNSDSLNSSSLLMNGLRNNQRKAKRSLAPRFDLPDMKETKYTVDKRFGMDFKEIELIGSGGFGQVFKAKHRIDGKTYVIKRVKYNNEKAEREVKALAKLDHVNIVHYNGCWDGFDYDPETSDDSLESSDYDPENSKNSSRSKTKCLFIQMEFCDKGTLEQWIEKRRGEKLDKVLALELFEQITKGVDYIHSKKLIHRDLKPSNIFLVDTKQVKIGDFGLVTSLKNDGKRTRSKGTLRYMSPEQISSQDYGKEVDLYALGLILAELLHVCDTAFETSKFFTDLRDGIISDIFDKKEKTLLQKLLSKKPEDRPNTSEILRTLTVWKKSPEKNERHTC
Chain of UniProt P78368 (P78368 whole entry, looked up): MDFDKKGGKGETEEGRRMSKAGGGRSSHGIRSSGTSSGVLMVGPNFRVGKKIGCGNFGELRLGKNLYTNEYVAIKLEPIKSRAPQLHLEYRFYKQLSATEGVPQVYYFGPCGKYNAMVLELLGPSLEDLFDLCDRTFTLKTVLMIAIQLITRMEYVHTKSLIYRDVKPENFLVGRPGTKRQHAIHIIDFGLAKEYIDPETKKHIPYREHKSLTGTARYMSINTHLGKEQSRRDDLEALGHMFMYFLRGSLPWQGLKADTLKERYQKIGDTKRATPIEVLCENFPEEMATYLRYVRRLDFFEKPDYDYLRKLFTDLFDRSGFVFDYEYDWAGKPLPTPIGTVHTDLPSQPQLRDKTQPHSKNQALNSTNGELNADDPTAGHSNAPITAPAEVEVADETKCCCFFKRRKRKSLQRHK
Chain of TWF1 (Q12792 whole entry): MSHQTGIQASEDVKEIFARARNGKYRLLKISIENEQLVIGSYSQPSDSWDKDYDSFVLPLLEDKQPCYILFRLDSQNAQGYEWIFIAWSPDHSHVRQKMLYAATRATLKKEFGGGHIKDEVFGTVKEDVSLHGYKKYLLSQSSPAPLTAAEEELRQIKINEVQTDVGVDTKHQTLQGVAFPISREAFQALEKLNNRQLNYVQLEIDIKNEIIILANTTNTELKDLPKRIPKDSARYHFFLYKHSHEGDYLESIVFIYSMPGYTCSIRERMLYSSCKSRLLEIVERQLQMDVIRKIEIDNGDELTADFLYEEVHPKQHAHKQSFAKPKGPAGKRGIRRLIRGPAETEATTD

For `CCc1cnn2c(NCc3ccc[n+]([O-])c3)cc(N3CCCC[C@H]3CCO)nc12` [dinaciclib], the pIC50 at BMPR2 and at PHKG2 was less than 4.52 throughout.
Regarding `O=C(NCCNC(=O)c1cc(Nc2cc(C3CC3)[nH]n2)nc(N2CCN(Cc3ccc(S(=O)(=O)F)cc3)CC2)n1)OC1CC/C=C/CCC1` (stereo unspecified), the negative-log IC50 (pIC50) is less than 4.52 on PIK3CD and 4.77 at UniProt P05129.
Take `Cc1cc(Nc2cc(C(=O)NCCNC(=O)OC3CC/C=C/CCC3)nc(N3CCN(Cc4ccc(S(=O)(=O)F)cc4)CC3)n2)n[nH]1` (stereo unspecified): the pIC50 on STRADB, on TWF1 and on UniProt P78368 was less than 4.52 each time.
Regarding `CCNC(=O)c1cc(Nc2cc(C)[nH]n2)nc(N2CCN(Cc3ccc(S(=O)(=O)F)cc3)CC2)n1`, the pIC50 on UniProt P19525 and at UniProt P35590 was less than 4.52 in each case.
In the case of `C#CCNC(=O)c1cc(Nc2cc(C3CC3)[nH]n2)nc(N2CCN(Cc3ccc(S(=O)(=O)F)cc3)CC2)n1`, the pIC50 at TYRO3 and on UniProt Q6DT37 was less than 4.52 each time.

The record behind these values is the supplement of paper PMC12076712.
